In patent US8748415B2 (priority 2011, dated 2014):

System: recombinant NL4-3 virus (Renilla luciferase in nef, Gag P373S)
Assay: HIV cell culture assay (luciferase activity in MT-2 cells infected with NLRluc recombinant virus)
Format: cell-based
Procedure, shortened: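 MT-2 cells in RPMI/10% FBS were infected with recombinant NL4-3 (NLRluc), produced by 293T transfection and titered in MT-2 by luciferase. Serial inhibitor dilutions were present throughout a 4–5 day infection. Antiviral activity was quantified as Renilla luciferase signal via a modified Dual Luciferase read.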

[1] = NL43, MT-2 cells infected 4-5 days with NLRluc recombinant virus, class symbol
[2] = NL43, MT-2 cells infected 4-5 days with NLRluc recombinant virus, numeric value

SMILES | EC50 [1] [µM] | further results
C=C(C)[C@@H]1CC[C@]2(CNC(C)C)CC[C@]3(C)[C@H](CC[C@@H]4[C@@]5(C)CC=C(c6ccc(C(=O)O)cc6)C(C)(C)[C@@H]5CC[C@]43C)[C@@H]12 [Example 175, 4-((1R,3aS,5aR,5bR,7aR,11aS,11bR,13aR,13bR)-3a-((isopropylamino)methyl)-5a,5b,8,8,11a-pentamethyl-1-(prop-1-en-2-yl)-2,3,3a,4,5,5a,5b,6,7,7a,8,11,11a,11b,12,13,13a,13b-octadecahydro-1H-cyclopenta[a]chrysen-9-yl)benzoic acid] | < 0.1 | 
C=C(C)[C@@H]1CC[C@]2(CNCCC(=O)OC)CC[C@]3(C)[C@H](CC[C@@H]4[C@@]5(C)CC=C(c6ccc(C(=O)O)cc6)C(C)(C)[C@@H]5CC[C@]43C)[C@@H]12 [Example 176, 4-((1R,3aS,5aR,5bR,7aR,11aS,11bR,13aR,13bR)-3a-((3-methoxy-3-oxopropylamino)methyl)-5a,5b,8,8,11a-pentamethyl-1-(prop-1-en-2-yl)-2,3,3a,4,5,5a,5b,6,7,7a,8,11,11a,11b,12,13,13a,13b-octadecahydro-1H-cyclopenta[a]chrysen-9-yl)benzoic acid] |  | EC50 [2]: 0.014 µM
C=C(C)[C@@H]1CC[C@]2(CN3CC3)CC[C@]3(C)[C@H](CC[C@@H]4[C@@]5(C)CC=C(c6ccc(C(=O)O)cc6)C(C)(C)[C@@H]5CC[C@]43C)[C@@H]12 [Example 177, 4-((1R,3aS,5aR,5bR,7aR,11aS,11bR,13aR,13bR)-3a-(aziridin-1-ylmethyl)-5a,5b,8,8,11a-pentamethyl-1-(prop-1-en-2-yl)-2,3,3a,4,5,5a,5b,6,7,7a,8,11,11a,11b,12,13,13a,13b-octadecahydro-1H-cyclopenta[a]chrysen-9-yl)benzoic acid] |  | EC50 (NL43): < 0.1 µM
C=C(C)[C@@H]1CC[C@]2(CNCCO)CC[C@]3(C)[C@H](CC[C@@H]4[C@@]5(C)CC=C(c6ccc(C(=O)O)cc6)C(C)(C)[C@@H]5CC[C@]43C)[C@@H]12 [Example 178, 4-((1R,3aS,5aR,5bR,7aR,11aS,11bR,13aR,13bR)-3a-((2-hydroxyethylamino)methyl)-5a,5b,8,8,11a-pentamethyl-1-(prop-1-en-2-yl)-2,3,3a,4,5,5a,5b,6,7,7a,8,11,11a,11b,12,13,13a,13b-octadecahydro-1H-cyclopenta[a]chrysen-9-yl)benzoic acid] | < 0.1 | 
C=C(C)[C@@H]1CC[C@]2(CNCCN3CCN(S(C)(=O)=O)CC3)CC[C@]3(C)[C@H](CC[C@@H]4[C@@]5(C)CC=C(c6ccc(C(=O)O)cc6)C(C)(C)[C@@H]5CC[C@]43C)[C@@H]12 [Example 179, 4-((1R,3aS,5aR,5bR,7aR,11aS,11bR,13aR,13bR)-5a,5b,8,8,11a-pentamethyl-3a-((2-(4-(methylsulfonyl)piperazin-1-yl)ethylamino)methyl)-1-(prop-1-en-2-yl)-2,3,3a,4,5,5a,5b,6,7,7a,8,11,11a,11b,12,13,13a,13b-octadecahydro-1H-cyclopenta[a]chrysen-9-yl)benzoic acid] | < 0.1 | 
C=C(C)[C@@H]1CC[C@]2(CNCCOC)CC[C@]3(C)[C@H](CC[C@@H]4[C@@]5(C)CC=C(c6ccc(C(=O)O)cc6)C(C)(C)[C@@H]5CC[C@]43C)[C@@H]12 [Example 180, 4-((1R,3aS,5aR,5bR,7aR,11aS,11bR,13aR,13bR)-3a-((2-methoxyethylamino)methyl)-5a,5b,8,8,11a-pentamethyl-1-(prop-1-en-2-yl)-2,3,3a,4,5,5a,5b,6,7,7a,8,11,11a,11b,12,13,13a,13b-octadecahydro-1H-cyclopenta[a]chrysen-9-yl)benzoic acid] | < 0.1 | 
C=C(C)[C@@H]1CC[C@]2(CNCCN3CCC(CO)CC3)CC[C@]3(C)[C@H](CC[C@@H]4[C@@]5(C)CC=C(c6ccc(C(=O)O)cc6)C(C)(C)[C@@H]5CC[C@]43C)[C@@H]12 [Example 181, 4-((1R,3aS,5aR,5bR,7aR,11aS,11bR,13aR,13bR)-3a-((2-(4-(hydroxymethyl)piperidin-1-yl)ethylamino)methyl)-5a,5b,8,8,11a-pentamethyl-1-(prop-1-en-2-yl)-2,3,3a,4,5,5a,5b,6,7,7a,8,11,11a,11b,12,13,13a,13b-octadecahydro-1H-cyclopenta[a]chrysen-9-yl)benzoic acid] |  | EC50 [2]: 0.001 µM
C=C(C)[C@@H]1CC[C@]2(CN3CCOC3=O)CC[C@]3(C)[C@H](CC[C@@H]4[C@@]5(C)CC=C(c6ccc(C(=O)O)cc6)C(C)(C)[C@@H]5CC[C@]43C)[C@@H]12 [Example 182, 4-((1R,3aS,5aR,5bR,7aR,11aS,11bR,13aR,13bR)-5a,5b,8,8,11a-pentamethyl-3a-((2-oxooxazolidin-3-yl)methyl)-1-(prop-1-en-2-yl)-2,3,3a,4,5,5a,5b,6,7,7a,8,11,11a,11b,12,13,13a,13b-octadecahydro-1H-cyclopenta[a]chrysen-9-yl)benzoic acid] | < 0.1 | 
